Measured values as given in PubChem BioAssay AID1902 (Broad Institute, 2009).
The source made the active and inactive calls.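 Rule for the calls: active = EC50 no more than a set limit of log units above the highest dose; inactive = the rest.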

Target: S. pyogenes SKKanGAS, kanamycin survival, BacTiterGlo, 6 h
Assay: SKKanGAS survival reduction under kanamycin, dose response, streptokinase promoter inhibitor project, SKKanGAS strain, luminescence, dose confirmation (AID 1902);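 note: lower survival reflects blocked streptokinase promoter driving kanamycin resistance gene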

SMILES | EC50
CCc1cccc2c(C(=O)COC(=O)/C=C/c3ccc(O)c(OC)c3)c[nH]c12 | 7.63 µM
Cc1nc(Nc2nc(-c3ccccc3)cc(=O)[nH]2)nc2ccccc12 | 5.67 µM
O=C(NNC1=C(C(=O)C(F)(F)F)CCC1)c1ccc(Br)cc1 | 0.926 µM
O=C(Cc1csc(Nc2nc(=S)[nH]c3ccccc23)n1)NCCCN1CCN(c2cccc(Cl)c2)CC1 | 6.12 µM
CCc1cccc2c(C(=O)COC(=O)c3ccc([N+](=O)[O-])s3)c[nH]c12 | 0.735 µM
CC(C)(C)C(=O)NC(=S)NNC(=O)c1ccc(Cl)cc1Cl | 0.402 µM
CCn1cnc2c1c(=O)n(CC(=O)Nc1cc(C)on1)c(=O)n2Cc1ccccc1 | > 15 µM (inactive)
Cc1[nH]c2ccccc2c1/C=N/Nc1nc2ccccc2[nH]1 | 4.87 µM
Clc1ccccc1CN(Cc1ccccc1)c1ncnc2nc[nH]c12 | 3.85 µM
O=c1c(O)c(-c2cccs2)oc2ccc(Cl)cc12 | 2.06 µM
COc1ccc(Nc2nc(NN)nc(Nc3ccc(OC)cc3)n2)cc1 | 6.02 µM
O=C(NC(NC(=S)Nc1ccccc1Cl)C(Cl)(Cl)Cl)c1cccc(Cl)c1 (stereo not given) | 1.59 µM
COc1ccc(-c2nnc(NC(=O)c3cc(Cl)ccc3Cl)o2)cc1 | 0.814 µM
O=C1C=C(N2CCCCC2)c2ccccc2C1=O | 3.67 µM
Cc1ccccc1NC(=O)C(=O)NC(C)CCc1ccccc1 (stereo not given) | > 15 µM (inactive)
Nc1ccc2c(c1)C(=O)C(=O)c1ccccc1-2 | 0.754 µM
Cc1cc(Oc2ccc(-c3ccccc3)cc2)nc(N2CCOCC2)n1 | 5.71 µM
Cc1cccc(NC(=O)c2cc3n(n2)C(C(F)(F)F)CC(c2ccc4c(c2)OCO4)N3)c1 (stereo not given) | 7.23 µM
COc1cccc(C2C3=C(N=c4s/c(=C\c5cccc(O)c5)c(=O)n42)c2ccccc2CC3)c1OC (stereo not given) | 5.37 µM
CCn1cc(C(=O)O)c(=O)c2cc(F)c(N/N=C/c3ccccc3[N+](=O)[O-])cc21 | 4.39 µM
CCN1/C(=C/C=C/c2sc3ccccc3[n+]2CC)Sc2ccccc21 | 2.15 µM
COc1ccc(NC2=NCC(Cc3ccc(Br)cc3)S2)cc1 (stereo not given) | 11.9 µM
CCN1CCN(c2cc3c(cc2F)c(=O)c(C(=O)O)cn3C2CC2)CC1 | 1.29 µM
O=C(CSc1nnc(CNC(=O)c2c(F)cccc2F)o1)NCc1ccccc1 | > 15 µM (inactive)
O=C(CC1CCCCC1)c1c(O)c2ccccc2oc1=O | 3.54 µM
Cc1cc(NC(=O)c2ccc3c(c2)OCCO3)ccc1NC(=O)c1cc2ccccc2o1 | 10.1 µM
C/C(CC(=O)Nc1ccc(Cl)c(C(F)(F)F)c1)=N\NC(=O)c1ccccc1O | 3.98 µM

SMILES | EC50
CCOC(=O)N1CCN(C(=O)c2ccc3c(c2)N(C)C(=O)/C(=C\c2ccc(OCC)c(OC)c2)S3)CC1 | 0.593 µM
Cc1ccc(Nc2cc(C)nn2-c2nc(C)cc(C)n2)cc1 | 6.47 µM
COCCOC(=O)c1c(C)nc(SCC(=O)Nc2ccc(C)cc2)c(C#N)c1-c1ccco1 | 6.68 µM
COc1ccc(C(C)=O)cc1COc1cc(C)c(Cl)c(C)c1 | > 15 µM (inactive)
O=[N+]([O-])c1ccc(-c2cnc(SC(c3ccccc3)c3ccccc3)[nH]2)cc1 | 11 µM
CCCCC1CCC(c2nc(-c3ccccn3)no2)CC1 (stereo not given) | 8.61 µM
Cc1ccc(NNC(=O)C2CCC2)cc1C | > 15 µM (inactive)
N#CC1=C(N)SC(N)=C(C#N)C1c1c(Cl)cccc1Cl | 8.78 µM
Cc1nc(N)sc1N=Nc1ccc(F)cc1 | 2.13 µM
CCOC(=O)Cc1cc(=O)n2[nH]cc(-c3cccc(Br)c3)c2n1 | 3.56 µM
Cc1c(Cl)c([N+](=O)[O-])nn1Cc1ccc(C(=O)N/N=C\c2cc(Cl)ccc2O)o1 | 1.48 µM
COc1cccc(/C=C/C(=O)OCC(=O)Nc2nnc(-c3ccccc3)o2)c1 | 4.21 µM
COc1ccc(NC(=O)CSc2ccc3nnc(-c4ccccn4)n3n2)c(OC)c1 | > 15 µM (inactive)
Cc1[nH]n(-c2ccccc2)c(=O)c1/C=N/NC(=O)c1cccc(F)c1 | 3.44 µM
CC1Oc2cc3oc4c(O)c(O)ccc4c(=O)c3c(O)c2C1(C)C (stereo not given) | 5.89 µM
CC(=O)OCC1=C(C(=O)O)N2C(=O)C(NC(=O)C(C)Cn3nc(C)c(Cl)c3C)C2SC1 (stereo not given) | 2.95 µM
O=C(Nc1nnc(SCc2ccc(F)cc2)s1)c1ccc2c(c1)C(=O)N(c1ccccc1Cl)C2=O | 6.26 µM
O=C(Nc1nc2ccccc2[nH]1)c1cccc(Cl)c1 | 10.4 µM
Cc1ccc(C(=O)NNC(=S)NC(=O)c2ccco2)cc1 | 0.905 µM
COc1ccccc1C(=O)Nc1nnc(SCC(=O)NCC2CCCO2)s1 (stereo not given) | > 15 µM (inactive)
COC(=O)c1cc(-c2cccc(OC)c2)c2c(=O)[nH]c(=O)n(C)c2n1 | 4.31 µM
O=C(CSc1nnc(NC(=O)c2cccc(F)c2)s1)NCC1CCCO1 (stereo not given) | > 15 µM (inactive)
Cc1nn2c(N3CCN(C(=O)c4ccco4)CC3)cc(C(C)(C)C)nc2c1-c1ccccc1 | 6.19 µM
Cc1cc(C)c(C2C3=C(Nc4c2c(C)nn4-c2ccccn2)c2ccccc2C3=O)c(C)c1 (stereo not given) | 1.45 µM
Oc1ccc(/C=C/c2ccc3cccc(O)c3n2)cc1Br | 1.04 µM
C=CCN1C(=O)/C(=C/c2ccc(OC(C)=O)c(OCC)c2[N+](=O)[O-])SC1=S | 1.62 µM
CC(C)c1ccc(OCC(=O)NNC(=S)NC(=O)c2ccco2)c(Br)c1 | < 0.06 µM

SMILES | EC50
CN1C(=O)/C(=C/c2cccn2-c2ccc3ccccc3c2)C(=O)NC1=S | 5.74 µM
CCCOc1ccc(Cc2c(Cl)nc(SC)nc2N(C)C)cc1 | 3.46 µM
CC(=O)[C@@]1(O)C(C)CC2C3C=C(C)C4=Cc5c(cnn5-c5ccccc5)C[C@]4(C)C3C(O)C[C@@]21C (stereo not given in full) | 3.56 µM
O=C(CCN1C(=O)/C(=C/c2ccccc2Cl)SC1=S)NNC(=O)c1ccccc1O | 3.35 µM
COc1ccc(OC)c2[nH]c(C(=O)N/N=C/c3ccccc3O)cc12 | 1.64 µM
COC(=O)[C@@]12CCCN1[C@H](c1ccc(-c3cccc(Cl)c3)c(OC)c1)[C@H]1C(=O)N(C)C(=O)[C@H]12 | > 15 µM (inactive)
C/C(=C\C(=O)OCCCCCCCCC(=O)O)C[C@@H]1OC[C@H](C[C@@H]2O[C@H]2[C@@H](C)[C@H](C)O)[C@@H](O)[C@H]1O | < 0.06 µM
O=C(CCCCCNC(=O)c1ccccc1)N=Nc1c(O)[nH]c2c(Br)cc(Br)cc12 | 5.43 µM
CCn1c(COc2ccc(C)cc2)nnc1SCc1ccc(C#N)cc1 | > 15 µM (inactive)
O=[N+]([O-])c1cc(S(=O)(=O)C(F)(F)F)ccc1Sc1nc2ccccc2[nH]1 | 4.1 µM
Cc1nnc(SCC2=C(C(=O)O)N3C(=O)C(NC(=O)Cn4ncc(Cl)c4C)C3SC2)s1 (stereo not given) | < 0.06 µM
Cc1cc(C)nc(NC(N)=NCCc2c[nH]c3ccccc23)n1 | 11.6 µM
COc1ccc(OC)c(NC(=O)NC2CCCc3ccccc32)c1 (stereo not given) | > 15 µM (inactive)
Cn1c(SCC(=O)NC2(C#N)CCCCC2)nnc1-c1cccnc1 | > 15 µM (inactive)
O=C(COc1ccc([N+](=O)[O-])cc1)Nc1nc(-c2ccccn2)cs1 | 3.68 µM
CCCOc1ccc(C2C(C(=O)c3cc4ccccc4o3)=C(O)C(=O)N2c2cc(C)on2)cc1OC (stereo not given) | 1.98 µM
COc1ccc(-c2cc(C3CCN(c4ccc(C(C)=O)cc4[N+](=O)[O-])CC3)[nH]n2)cc1 | 2.76 µM
Cc1cc(Nc2ccccc2)nn1C(=O)c1ccc(Br)cc1 | 14.6 µM
Cc1cccc2[nH]c3c(N4CC=C(c5ccc(F)cc5)CC4)ncnc3c12 | 2.14 µM
Cc1cccc(C(=O)NNC(=O)c2c(O)c3ccccc3n(C)c2=O)c1 | 6.96 µM
Cc1ccc(-c2csc(NC(=O)c3ccc([N+](=O)[O-])o3)n2)cc1 | 3.42 µM
Cc1cc(C)c(COc2ccc(/C=N/n3c(C)n[nH]c3=S)cc2)c(C)c1 | 5.33 µM
Cc1cccc(Cn2nc(C(C)(C)C)cc2C(=O)Nc2ccc(F)cc2)c1 | 3.95 µM
Cc1ccc(S(=O)(=O)Nc2cc(Cl)c(O)c3ncccc23)cc1 | 7.11 µM
O=C(N/N=C/c1cc(Br)cc(Br)c1O)c1ccncc1 | 0.658 µM
CSc1nc(SCC(=O)O)c2sc3nc(-c4ccccc4)c4c(c3c2n1)CCC4 | 1.14 µM
COc1cccc(C(=O)Nc2nc(-c3ccccc3)c(-c3ccccc3)o2)c1 | 0.881 µM

SMILES | EC50
Cc1cc(C)c(OCC(=O)Nc2ccccc2N2CCCCC2)c(C)c1 | 4.38 µM
Cc1cccc(C)c1-n1cccc1/C=C1\SC(=S)N(c2cccc(C(=O)O)c2)C1=O | 2.26 µM
Cc1cc2nc(N3C(=O)CNC3=S)sc2cc1C | 2.21 µM
O=C(Nc1cccc(-c2csc(Nc3cccc(C(F)(F)F)c3)n2)c1)c1ccccc1 | 4.33 µM
CCOC(=O)c1ccc(NC(=O)c2nc[nH]c2C(=O)N[C@@H](CCCCNC(=O)OC(C)(C)C)C(=O)OC(C)(C)C)cc1 | 4.72 µM
O=C(c1cc2ccccc2cc1O)N1CCN(c2ccccc2O)CC1 | 9.87 µM
COc1cc(OC)c2cc(C(=O)N/N=C/c3ccccc3O)[nH]c2c1 | 1.1 µM
Cc1nn(-c2ccccc2)c(Cl)c1C1C(C#N)=C(N)Oc2c1c(=O)oc1ccccc21 (stereo not given) | 0.112 µM
O=C(N/N=C/c1cc2c3c(c1O)CCCN3CCC2)c1ccccc1O | 7.14 µM
CC(=O)OCC1=C(C(=O)O)N2C(=O)C(NC(=O)c3ccc(COc4cccc(Cl)c4Cl)o3)C2SC1 (stereo not given) | 2.79 µM
Cc1ccc2c(Cl)cc(Cl)c(OCC(=O)NC(C)(C)C)c2n1 | 3.14 µM
Nc1ccc(C#Cc2ccc3oc4ccccc4c(=O)c3c2)cc1 | 1.39 µM
O=C1Nc2ccccc2S/C1=C/Nc1cccc(Cl)c1 | 6.77 µM
COc1ccc(Nc2ncnc3scc(-c4ccc(OC)cc4)c23)cc1 | > 15 µM (inactive)
COc1ccc(N2CCN(C(=O)Cc3csc(NC(=O)Nc4ccccc4OC)n3)CC2)cc1 | 12.7 µM
Cc1ccc(C(=O)NNC(=S)NC(=O)c2ccccc2)cc1 | 0.955 µM
O=C(NNc1ccccc1Br)C(O)(c1cccc(C(F)(F)F)c1)c1cccc(C(F)(F)F)c1 | 2.59 µM
Clc1cccc(Nc2ncnc3c2cnn3-c2ccccc2)c1 | 4.98 µM
CCOC(=O)c1cnn(-c2nc(-c3ccccc3F)cs2)c1C(F)(F)F | 10.9 µM
COCCn1c(-c2cc(OC)c(OC)c(OC)c2)nc2oc3cc(OC)ccc3c(=O)c2c1=O | > 15 µM (inactive)
O=C(CSc1nnc(NC(=O)c2cccc(Cl)c2)s1)NCC1CCCO1 (stereo not given) | > 15 µM (inactive)
Cc1ccc2c(c1)=C(c1sc(N(C)c3ccc(O)cc3)nc1O)C(=O)N=2 | 6.72 µM
C=CC1=C(C(=O)O)N2C(=O)[C@@H](NC(=O)/C(=N/OCC(=O)O)c3csc(N)n3)[C@H]2SC1 | < 0.06 µM
Cc1cccc(-c2nnc(NC(=O)c3ccc(Cl)cc3)o2)c1 | 0.097 µM
